Our source for the Activity and Ki values is ChEMBL document CHEMBL5236645, “Novel imidazo[1,5-a]quinoxaline derivatives: SAR, selectivity and modeling challenges en route to the identification of an α5-GABAA receptor NAM” (Bioorg Med Chem Lett, 2023).

The target in assay [1] is T1, Gamma-aminobutyric acid receptor subunit alpha-5 (Homo sapiens) (UniProt P31644).
T1 sequence (whole entry): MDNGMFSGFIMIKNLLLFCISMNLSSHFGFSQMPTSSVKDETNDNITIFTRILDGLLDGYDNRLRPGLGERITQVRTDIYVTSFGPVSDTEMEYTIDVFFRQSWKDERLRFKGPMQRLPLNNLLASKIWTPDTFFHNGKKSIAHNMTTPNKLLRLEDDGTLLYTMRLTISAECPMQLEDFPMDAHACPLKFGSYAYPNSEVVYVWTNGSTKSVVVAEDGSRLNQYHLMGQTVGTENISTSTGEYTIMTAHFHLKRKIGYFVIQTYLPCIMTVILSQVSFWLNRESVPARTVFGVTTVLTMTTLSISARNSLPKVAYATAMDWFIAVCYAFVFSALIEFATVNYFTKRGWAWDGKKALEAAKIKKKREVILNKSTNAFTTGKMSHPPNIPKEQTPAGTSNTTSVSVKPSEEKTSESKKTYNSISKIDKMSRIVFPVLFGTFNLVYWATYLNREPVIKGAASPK
The experiment in a line: Displacement of flumazenil from alpha5 GABAA receptor (unknown origin) at 1 uM relative to control.

Assay [2] addresses T2, Gamma-aminobutyric acid receptor subunit alpha-5 (Homo sapiens, UniProt P31644).
T2 sequence (P31644 whole entry): T1 sequence (whole entry)
The experiment in a line: Displacement of flumazenil from alpha5 GABAA receptor (unknown origin).

Assay [3] has as its target T3, Gamma-aminobutyric acid receptor subunit alpha-1 (Homo sapiens, UniProt P14867).
T3 sequence (P14867 whole entry): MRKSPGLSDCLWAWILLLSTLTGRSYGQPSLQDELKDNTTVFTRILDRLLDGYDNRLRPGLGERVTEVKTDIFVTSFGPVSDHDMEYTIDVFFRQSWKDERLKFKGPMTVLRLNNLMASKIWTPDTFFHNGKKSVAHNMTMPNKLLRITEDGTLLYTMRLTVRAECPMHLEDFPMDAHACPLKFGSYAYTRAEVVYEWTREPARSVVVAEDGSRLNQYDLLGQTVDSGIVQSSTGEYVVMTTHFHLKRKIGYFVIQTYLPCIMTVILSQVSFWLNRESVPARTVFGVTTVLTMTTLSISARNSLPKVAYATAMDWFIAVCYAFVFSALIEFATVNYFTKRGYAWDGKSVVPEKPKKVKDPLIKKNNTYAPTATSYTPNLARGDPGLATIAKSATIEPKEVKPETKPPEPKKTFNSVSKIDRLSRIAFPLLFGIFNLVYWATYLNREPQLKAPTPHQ
The experiment in a line: Displacement of flumazenil from alpha1 GABAA receptor (unknown origin).

Assay [4] deals with T2, Gamma-aminobutyric acid receptor subunit alpha-5. Kind of assay: Negative allosteric modulation of alpha5 GABAA (unknown origin).
The target of assay [5] is T3, Gamma-aminobutyric acid receptor subunit alpha-1. The experiment in a line: Negative allosteric modulation of alpha1 GABAA (unknown origin).
Assay [6] has as its target T1, Gamma-aminobutyric acid receptor subunit alpha-5 (Homo sapiens). The experiment in a line: Displacement of flumazenil from alpha5 GABAA receptor (unknown origin) at 10 uM relative to control. To be noted: filed as modulator.

`O=c1c2cncn2c2cc(F)c(F)cc2n1Cc1cccnc1` had an Activity in assay [1] (filed as modulator) of 57%. For `O=c1c2cncn2c2ccc(Br)cc2n1Cc1cccnc1`, the Ki in assay [2] worked out at 89 nM; in assay [3], 76 nM. The matching figures for `CN1C(=O)COc2cc(Cn3c(=O)c4cncn4c4ccccc43)ccc21`: 48 nM and 74 nM.

The compound `O=c1c2cncn2c2cc(Cl)ccc2n1Cc1cccnc1` returned an inhibition constant (Ki) in assay [2] of 840 nM. This counts as sub-micromolar. Consider `COc1ccc2c(c1)n(Cc1cccnc1)c(=O)c1cncn12`, for which the results for the inhibitory constant (Ki) in assay [2] and in assay [3] were 20 nM and 120 nM, respectively.

As for `CCn1c(=O)c2cncn2c2ccccc21`, in assay [2], the affinity, expressed as Ki, was 1380 nM.

Regarding `Cc1cc(-c2nnc3c4ccccc4c(OCc4ccccn4)nn23)no1`, the results for the Ki in assay [4] and in assay [5] were 0.5 nM and 0.4 nM, respectively. For the compound `O=c1c2cncn2c2ccccc2n1Cc1ccccc1`, the Activity in assay [1] (filed as modulator) worked out at 61%. Regarding `N#Cc1cccc2c1n1cncc1c(=O)n2Cc1cccnc1`, the Activity in assay [1] was determined as 0%. In the case of `CCOC(=O)c1ncn2c1c(=O)n(Cc1cccnc1)c1cccc(Cl)c12`, the Ki came to 2 nM in assay [2] and 7 nM in assay [3]. On to `CCc1ncn2c1c(=O)n(Cc1ccccn1)c1ccccc12`, for which the affinity in assay [2], expressed as Ki, was 360 nM. As to `Cc1ccncc1Cn1c(=O)c2cncn2c2ccccc21`, the values for the Ki in assay [2] and in assay [3] were 17 nM and 60 nM, respectively. Turning to `Cc1ncn2c1c(=O)n(Cc1cccnc1)c1ccccc12`, the Ki in assay [2] turned out to be 18 nM; in assay [3], 8 nM. As for `O=c1c2c(CC3CC3)ncn2c2ccccc2n1Cc1ccccn1`, the inhibition constant (Ki) amounted to 80 nM in assay [2] and 23 nM in assay [3].

For the compound `O=c1c2cncn2c2c(Cl)cc(Cl)cc2n1Cc1cccnc1`, the Ki in assay [2] came out at 138 nM; in assay [3], 420 nM. As for `Cc1cc(Cn2c(=O)c3cncn3c3ccccc32)no1`, the results for the inhibition constant Ki in assay [2] and in assay [3] were 56 nM and 32 nM, respectively.

For `O=c1c2cncn2c2ccccc2n1Cc1cnccn1`, the figures for the Ki in assay [2] and in assay [3] were 33 nM and 55 nM, respectively.

As for `O=c1c2cncn2c2ccccc2n1Cc1cncnc1`, the inhibition constant Ki came out at 15 nM in assay [2] and 30 nM in assay [3]. In assay [2], `Cc1ncccc1Cn1c(=O)c2cncn2c2ccccc21` gave a Ki of 107 nM.

Turning to `O=c1c2c(Cl)ncn2c2ccccc2n1Cc1ccccn1`, the Ki came out at 12 nM in assay [2] and 5.4 nM in assay [3]. Regarding `O=c1c2cncn2c2ccccc2n1Cc1cccnc1`, the Ki in assay [2] amounted to 28 nM; in assay [3], 32 nM. In assay [2], `COc1ccc(Cn2c(=O)c3cncn3c3ccccc32)cc1` gave a Ki of 244 nM. As for `COc1cc(Cl)c2c(c1)n(Cc1cccnc1)c(=O)c1cncn12`, the inhibition constant (Ki) was found to be 142 nM in assay [2] and 670 nM in assay [3].

For the compound `CCOC(=O)c1ncn2c1c(=O)n(Cc1cccnc1)c1ccccc12`, the results for the Ki in assay [2] and in assay [3] were 0.3 nM and 0.4 nM, respectively. The matching figures for `CC(C)(C)c1ccc2c(c1)n(Cc1cccnc1)c(=O)c1cncn12`: 210 nM and 310 nM. `Cc1cncc(Cn2c(=O)c3cncn3c3ccccc32)c1`: the Ki in assay [2] was 17 nM; in assay [3], 60 nM.

`O=c1c2cncn2c2c(Cl)cccc2n1Cc1cccnc1`: the inhibition constant Ki in assay [2] stood at 295 nM; in assay [3], 2150 nM.

In assay [6], `O=c1[nH]c2ccccc2n2cncc12` yielded an Activity of 53%. Turning to `Cc1ncc(Cn2c(=O)c3cncn3c3ccccc32)cn1`, the Ki turned out to be 1.7 nM in assay [2] and 3.6 nM in assay [3]. For `O=c1c2c(CO)ncn2c2ccccc2n1Cc1cccnc1`, the figures for the inhibition constant (Ki) in assay [2] and in assay [3] were 52 nM and 100 nM, respectively. The matching figures for `O=c1c2cncn2c2ccccc2n1Cc1ccccn1`: 132 nM and 52 nM. For `COc1cc(Cl)c2c(c1)n(Cc1cnccc1C)c(=O)c1cncn12`, the results for the inhibition constant Ki in assay [2] and in assay [3] were 687 nM and 2100 nM, respectively. For the compound `O=c1c2cncn2c2ccccc2n1CCc1ccccn1`, in assay [1], the Activity came to 29%.

As to `Cc1cc(Cc2ncn3c2c(=O)n(Cc2ccccn2)c2ccccc23)no1`, in assay [2], the affinity corresponds to a Ki of 379 nM. This lies in the sub-micromolar range.

As for `O=c1c2cncn2c2cc(OC(F)(F)F)ccc2n1Cc1cccnc1`, the Activity in assay [1] (filed as modulator) stood at 42%.

`N#Cc1ccc(Cn2c(=O)c3cncn3c3ccccc32)cn1` returned an Activity in assay [1] (filed as modulator) of 61%. For `Cc1cc(Cn2c(=O)c3c(C)ncn3c3ccccc32)no1`, the affinity in assay [2] corresponds to a Ki of 30 nM. That is a double-digit nanomolar value. Turning to `Cc1cccc2c1n1cncc1c(=O)n2Cc1cccnc1`, the Ki in assay [2] was found to be 86 nM; in assay [3], 600 nM. Consider `O=c1c2cncn2c2ccc(Cl)cc2n1Cc1cccnc1`, for which the values for the Ki in assay [2] and in assay [3] were 11 nM and 15 nM, respectively. The matching figures for `Cc1ccc(Cn2c(=O)c3cncn3c3ccccc32)cn1`: 16 nM and 35 nM.

In turn, `O=c1c2cncn2c2ccccc2n1-c1ccccn1` returned an Activity in assay [1] of 7%. In the case of `Cc1onc(-c2ccc(F)cc2)c1COc1ccc(C(=O)N2CCS(=O)(=O)CC2)cn1` [BASMISANIL], the Ki was determined as 4.4 nM in assay [4] and 1210 nM in assay [5]. For `O=C(c1ccc(Cn2c(=O)c3cncn3c3ccccc32)cn1)N1CCOCC1`, the Activity in assay [1] is 38%. As to `Cn1cc(Cn2c(=O)c3cncn3c3ccccc32)cn1`, the inhibitory constant (Ki) amounted to 64 nM in assay [2] and 123 nM in assay [3]. Turning to `Cn1c(=O)c2cncn2c2ccccc21`, the affinity in assay [2] corresponds to a Ki of 2190 nM. As to `COc1ccc2c(c1)n1cncc1c(=O)n2Cc1cccnc1`, the Activity in assay [1] is 18%. Consider `Cc1noc(C)c1Cn1c(=O)c2c(C)ncn2c2ccccc21`, for which, in assay [1] (filed as modulator), the Activity turned out to be 65%. On the same count and under the same terms, in the case of `O=c1c2cncn2c2ccccc2n1Cc1ccncc1` it was 62%. Consider `Cc1ncn2c1c(=O)n(Cc1ccccn1)c1ccccc12`, for which the inhibitory constant (Ki) was determined as 65 nM in assay [2] and 16 nM in assay [3]. In turn, `O=c1c2cncn2c2cccnc2n1Cc1cccnc1` showed an inhibitory constant (Ki) in assay [2] of 122 nM.

Broadly, the Ki is a measure of affinity in units of concentration, obtained from inhibition or displacement.
